Literature values as cited in US12156898B2, “Formulations of terlipressin” (BIOVIE Inc., priority 2019, dated 2024).
Bridge positions count the residues as written; N and C are the ends. Peptide text beside a SMILES is read from it.

Legend:
[1] = in vivo
patients = settings: human, in vivo

## NCCCC[C@H](NC(=O)[C@@H]1CCCN1C(=O)[C@@H]1CSSC[C@H](NC(=O)CNC(=O)CNC(=O)CN)C(=O)N[C@@H](Cc2ccc(O)cc2)C(=O)N[C@@H](Cc2ccccc2)C(=O)N[C@@H](CCC(N)=O)C(=O)N[C@@H](CC(N)=O)C(=O)N1)C(=O)NCC(N)=O [terlipressin] (H-GGGCYFQNCPKG-NH2; disulfide 4-9)
[1]
  half-life: short half-life
patients
  severe side effects requiring discontinuation of treatment, share of patients: up to 10%
  side effects, share of patients: up to 40%
